Results published in patent publication US20030224942A1, “Alkylamino-1,3,5-triazines, processes for their preparation and their use as herbicides and plant growth regulators” (priority 2001, published 2003).

How the values were obtained:
[1] = system: Cyperus spp., Echinochloa spp., Digitaria spp., Sagitaria spp. and Scirpus spp.; experiment: Action on harmful plants in rice (paddy rice conditions, visual scoring); type: in vivo, typical rice weeds (gramineous and broad-leaved); settings: applied into the dammed water, visual scoring about three weeks after application
How it was run: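 Rice and typical gramineous and broad-leaved rice weeds grown in closed pots in greenhouse under paddy conditions (2-3 cm water) to three-leaf stage (Echinochloa crus-galli 1.5-leaf), then treated with compounds. Plants kept under optimum greenhouse conditions throughout; effect scored visually.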

[2] = system: Chenopodium spp., Papaver spp., Polygonum spp., Veronica spp. or Viola spp.; experiment: Post-emergence effect on weeds (greenhouse pot test, visual scoring); type: in vivo, monocotyledonous and dicotyledonous weeds; settings: treated at three-leaf stage; visual scoring after about 3 to 4 weeks; application rate of 0.5 kg and less of active substance per hectare

## C#Cc1ccc(C(Nc2nc(N)nc(C(C)(C)F)n2)C2CC2)cc1 (stereo not shown) [Product P19.1580]
[1]
  herbicidal activity against harmful plants which are typical for rice crops: very good herbicidal activity
[2]
  herbicidal activity post-emergence against harmful plants: very good herbicidal activity

## CC#Cc1cccc(C(Nc2nc(N)nc(C(C)(C)F)n2)C2CC2)c1 (stereo not shown) [Product P19.1582]
[1]
  herbicidal activity against harmful plants which are typical for rice crops: very good herbicidal activity
[2]
  herbicidal activity post-emergence against harmful plants: very good herbicidal activity

## CC#Cc1ccc(C(Nc2nc(N)nc(C(C)(C)F)n2)C2CC2)cc1 (stereo not shown) [Product P19.1583]
[1]
  herbicidal activity against harmful plants which are typical for rice crops: very good herbicidal activity
[2]
  herbicidal activity post-emergence against harmful plants: very good herbicidal activity

## CC(C)(F)c1nc(N)nc(NC(c2cccc(C3CC3)c2)C2CC2)n1 (stereo not shown) [Product P19.1603]
[1]
  herbicidal activity against harmful plants which are typical for rice crops: very good herbicidal activity
[2]
  herbicidal activity post-emergence against harmful plants: very good herbicidal activity

## CC(C)(F)c1nc(N)nc(NC(c2ccc(C3CC3)cc2)C2CC2)n1 (stereo not shown) [Product P19.1604]
[1]
  herbicidal activity against harmful plants which are typical for rice crops: very good herbicidal activity
[2]
  herbicidal activity post-emergence against harmful plants: very good herbicidal activity

## CC(F)c1nc(N)nc(NCc2ccc(F)c(C(F)=C(F)F)c2)n1 (stereo not shown) [Product P21.5]
[1]
  herbicidal activity against harmful plants which are typical for rice crops: very good herbicidal activity
[2]
  herbicidal activity post-emergence against harmful plants: very good herbicidal activity

## CC(F)c1nc(N)nc(NCc2cc(F)c(C(F)=C(F)F)c(F)c2)n1 (stereo not shown) [Product P21.49]
[1]
  herbicidal activity against harmful plants which are typical for rice crops: very good herbicidal activity
[2]
  herbicidal activity post-emergence against harmful plants: very good herbicidal activity

## C#Cc1cc(CNc2nc(N)nc(C(C)F)n2)ccc1F (stereo not shown) [Product P21.309]
[1]
  herbicidal activity against harmful plants which are typical for rice crops: very good herbicidal activity
[2]
  herbicidal activity post-emergence against harmful plants: very good herbicidal activity

## C#Cc1c(F)cc(CNc2nc(N)nc(C(C)F)n2)cc1F (stereo not shown) [Product P21.352]
[1]
  herbicidal activity against harmful plants which are typical for rice crops: very good herbicidal activity
[2]
  herbicidal activity post-emergence against harmful plants: very good herbicidal activity

## CC#Cc1cc(CNc2nc(N)nc(C(C)F)n2)ccc1F (stereo not shown) [Product P21.384]
[1]
  herbicidal activity against harmful plants which are typical for rice crops: very good herbicidal activity
[2]
  herbicidal activity post-emergence against harmful plants: very good herbicidal activity

## CC#Cc1c(F)cc(CNc2nc(N)nc(C(C)F)n2)cc1F (stereo not shown) [Product P21.428]
[1]
  herbicidal activity against harmful plants which are typical for rice crops: very good herbicidal activity
[2]
  herbicidal activity post-emergence against harmful plants: very good herbicidal activity

## CC(F)c1nc(N)nc(NCc2ccc(F)c(C3CC3)c2)n1 (stereo not shown) [Product P21.916]
[1]
  herbicidal activity against harmful plants which are typical for rice crops: very good herbicidal activity
[2]
  herbicidal activity post-emergence against harmful plants: very good herbicidal activity

## CC(F)c1nc(N)nc(NCc2cccc(C(F)=C(F)F)c2)n1 (stereo not shown) [Product P21.1567]
[1]
  herbicidal activity against harmful plants which are typical for rice crops: very good herbicidal activity
[2]
  herbicidal activity post-emergence against harmful plants: very good herbicidal activity

## CC(F)c1nc(N)nc(NCc2ccc(C(F)=C(F)F)cc2)n1 (stereo not shown) [Product P21.1568]
[1]
  herbicidal activity against harmful plants which are typical for rice crops: very good herbicidal activity
[2]
  herbicidal activity post-emergence against harmful plants: very good herbicidal activity

## C#Cc1cccc(CNc2nc(N)nc(C(C)F)n2)c1 (stereo not shown) [Product P21.1579]
[1]
  herbicidal activity against harmful plants which are typical for rice crops: very good herbicidal activity
[2]
  herbicidal activity post-emergence against harmful plants: very good herbicidal activity

## C#Cc1ccc(CNc2nc(N)nc(C(C)F)n2)cc1 (stereo not shown) [Product P21.1580]
[1]
  herbicidal activity against harmful plants which are typical for rice crops: very good herbicidal activity
[2]
  herbicidal activity post-emergence against harmful plants: very good herbicidal activity

## CC#Cc1cccc(CNc2nc(N)nc(C(C)F)n2)c1 (stereo not shown) [Product P21.1582]
[1]
  herbicidal activity against harmful plants which are typical for rice crops: very good herbicidal activity
[2]
  herbicidal activity post-emergence against harmful plants: very good herbicidal activity

## CC#Cc1ccc(CNc2nc(N)nc(C(C)F)n2)cc1 (stereo not shown) [Product P21.1583]
[1]
  herbicidal activity against harmful plants which are typical for rice crops: very good herbicidal activity
[2]
  herbicidal activity post-emergence against harmful plants: very good herbicidal activity

## CC(F)c1nc(N)nc(NCc2cccc(C3CC3)c2)n1 (stereo not shown) [Product P21.1603]
[1]
  herbicidal activity against harmful plants which are typical for rice crops: very good herbicidal activity
[2]
  herbicidal activity post-emergence against harmful plants: very good herbicidal activity

## CC(F)c1nc(N)nc(NCc2ccc(C3CC3)cc2)n1 (stereo not shown) [Product P21.1604]
[1]
  herbicidal activity against harmful plants which are typical for rice crops: very good herbicidal activity
[2]
  herbicidal activity post-emergence against harmful plants: very good herbicidal activity

## CC(F)c1nc(N)nc(NC(C)c2ccc(F)c(C(F)=C(F)F)c2)n1 (stereo not shown) [Product P22.5]
[1]
  herbicidal activity against harmful plants which are typical for rice crops: very good herbicidal activity
[2]
  herbicidal activity post-emergence against harmful plants: very good herbicidal activity

## C#Cc1cc(C(C)Nc2nc(N)nc(C(C)F)n2)ccc1F (stereo not shown) [Product P22.309]
[1]
  herbicidal activity against harmful plants which are typical for rice crops: very good herbicidal activity
[2]
  herbicidal activity post-emergence against harmful plants: very good herbicidal activity

## C#Cc1ccc(C(C)Nc2nc(N)nc(C(C)F)n2)cc1C (stereo not shown) [Product P22.335]
[1]
  herbicidal activity against harmful plants which are typical for rice crops: very good herbicidal activity
[2]
  herbicidal activity post-emergence against harmful plants: very good herbicidal activity

## C#Cc1c(C)cc(C(C)Nc2nc(N)nc(C(C)F)n2)cc1C (stereo not shown) [Product P22.348]
[1]
  herbicidal activity against harmful plants which are typical for rice crops: very good herbicidal activity
[2]
  herbicidal activity post-emergence against harmful plants: very good herbicidal activity

## C#Cc1c(F)cc(C(C)Nc2nc(N)nc(C(C)F)n2)cc1F (stereo not shown) [Product P22.352]
[1]
  herbicidal activity against harmful plants which are typical for rice crops: very good herbicidal activity
[2]
  herbicidal activity post-emergence against harmful plants: very good herbicidal activity

## C#Cc1cc(C#C)cc(C(C)Nc2nc(N)nc(C(C)F)n2)c1 (stereo not shown) [Product P22.369]
[1]
  herbicidal activity against harmful plants which are typical for rice crops: very good herbicidal activity
[2]
  herbicidal activity post-emergence against harmful plants: very good herbicidal activity

## CC#Cc1cc(C(C)Nc2nc(N)nc(C(C)F)n2)ccc1F (stereo not shown) [Product P22.384]
[1]
  herbicidal activity against harmful plants which are typical for rice crops: very good herbicidal activity
[2]
  herbicidal activity post-emergence against harmful plants: very good herbicidal activity

## CC#Cc1c(F)cc(C(C)Nc2nc(N)nc(C(C)F)n2)cc1F (stereo not shown) [Product P22.428]
[1]
  herbicidal activity against harmful plants which are typical for rice crops: very good herbicidal activity
[2]
  herbicidal activity post-emergence against harmful plants: very good herbicidal activity

## C=C=Cc1c(F)cc(C(C)Nc2nc(N)nc(C(C)F)n2)cc1F (stereo not shown) [Product P22.656]
[1]
  herbicidal activity against harmful plants which are typical for rice crops: very good herbicidal activity
[2]
  herbicidal activity post-emergence against harmful plants: very good herbicidal activity

## CCCCC#Cc1cc(C(C)Nc2nc(N)nc(C(C)F)n2)ccc1F (stereo not shown) [Product P22.688]
[1]
  herbicidal activity against harmful plants which are typical for rice crops: very good herbicidal activity
[2]
  herbicidal activity post-emergence against harmful plants: very good herbicidal activity

## CC(F)C#Cc1cc(C(C)Nc2nc(N)nc(C(C)F)n2)ccc1F (stereo not shown) [Product P22.764]
[1]
  herbicidal activity against harmful plants which are typical for rice crops: very good herbicidal activity
[2]
  herbicidal activity post-emergence against harmful plants: very good herbicidal activity

## CC(O)C#Cc1cc(C(C)Nc2nc(N)nc(C(C)F)n2)ccc1F (stereo not shown) [Product P22.840]
[1]
  herbicidal activity against harmful plants which are typical for rice crops: very good herbicidal activity
[2]
  herbicidal activity post-emergence against harmful plants: very good herbicidal activity

## CC(F)c1nc(N)nc(NC(C)c2ccc(F)c(C3CC3)c2)n1 (stereo not shown) [Product P22.916]
[1]
  herbicidal activity against harmful plants which are typical for rice crops: very good herbicidal activity
[2]
  herbicidal activity post-emergence against harmful plants: very good herbicidal activity

## CC(F)c1nc(N)nc(NC(C)c2cccc(C(F)=C(F)F)c2)n1 (stereo not shown) [Product P22.1567]
[1]
  herbicidal activity against harmful plants which are typical for rice crops: very good herbicidal activity
[2]
  herbicidal activity post-emergence against harmful plants: very good herbicidal activity

## CC(F)c1nc(N)nc(NC(C)c2ccc(C(F)=C(F)F)cc2)n1 (stereo not shown) [Product P22.1568]
[1]
  herbicidal activity against harmful plants which are typical for rice crops: very good herbicidal activity
[2]
  herbicidal activity post-emergence against harmful plants: very good herbicidal activity

## C#Cc1cccc(C(C)Nc2nc(N)nc(C(C)F)n2)c1 (stereo not shown) [Product P22.1579]
[1]
  herbicidal activity against harmful plants which are typical for rice crops: very good herbicidal activity
[2]
  herbicidal activity post-emergence against harmful plants: very good herbicidal activity

## C#Cc1ccc(C(C)Nc2nc(N)nc(C(C)F)n2)cc1 (stereo not shown) [Product P22.1580]
[1]
  herbicidal activity against harmful plants which are typical for rice crops: very good herbicidal activity
[2]
  herbicidal activity post-emergence against harmful plants: very good herbicidal activity

## CC#Cc1cccc(C(C)Nc2nc(N)nc(C(C)F)n2)c1 (stereo not shown) [Product P22.1582]
[1]
  herbicidal activity against harmful plants which are typical for rice crops: very good herbicidal activity
[2]
  herbicidal activity post-emergence against harmful plants: very good herbicidal activity

## CC#Cc1ccc(C(C)Nc2nc(N)nc(C(C)F)n2)cc1 (stereo not shown) [Product P22.1583]
[1]
  herbicidal activity against harmful plants which are typical for rice crops: very good herbicidal activity
[2]
  herbicidal activity post-emergence against harmful plants: very good herbicidal activity

## CCCCC#Cc1ccc(C(C)Nc2nc(N)nc(C(C)F)n2)cc1 (stereo not shown) [Product P22.1595]
[1]
  herbicidal activity against harmful plants which are typical for rice crops: very good herbicidal activity
[2]
  herbicidal activity post-emergence against harmful plants: very good herbicidal activity

## CC(F)C#Cc1cccc(C(C)Nc2nc(N)nc(C(C)F)n2)c1 (stereo not shown) [Product P22.1597]
[1]
  herbicidal activity against harmful plants which are typical for rice crops: very good herbicidal activity
[2]
  herbicidal activity post-emergence against harmful plants: very good herbicidal activity
